# According to ChEMBL document CHEMBL6114980, “Single or double lipid-modified ultra-short antimicrobial peptides for treating infections caused by resistant bacteria” (Eur J Med Chem, 2025):
# The source made the active and inactive calls. No cut-off for these calls is given here. Peptide text beside a SMILES is read from it. * marks the point of attachment. Lauroyl = CCCCCCCCCCCC(=O)*; Octanoyl = CCCCCCCC(=O)*
# Columns and labels:
# Lipopolysaccharide (LPS) = assay: Binding affinity to LPS (unknown origin) assessed as reduction in bacterial mortality at 2 times MIC preincubated with LPS for 1 hr followed by bacteria addition for 24 hrs by spectrophotometric analysis
# Staphylococcus aureus [1] = assay: Antibacterial activity against methicillin resistant Staphylococcus aureus infected in male BALB/c mouse model of skin wound infection assessed as appearance of intact structure of stratum corneum at 2 mg/kg, ip measured after 10 days post infection; assay type: functional, organism-based; conditions: time 10.0 day
# Staphylococcus aureus [2] = assay: Synergistic antibacterial activity against Staphylococcus aureus 25923 measured after 18 hrs in presence of cephalothin by absorbance based analysis; assay type: functional, organism-based
# Cell membrane = assay: Induction of inner membrane permeabilization in Escherichia coli at 4 times MIC measured for 135 mins by absorbance based analysis
# Staphylococcus aureus [3] = assay: Antibacterial activity against methicillin resistant Staphylococcus aureus infected in male BALB/c mouse model of skin wound infection assessed as reduction in wound area at 2 mg/kg, ip measured after 6 to 36 hrs postinfection; assay type: functional, organism-based; conditions: time 6-36 hrs
# Enterococcus faecalis = assay: Antibacterial activity against Enterococcus faecalis ATCC 29212 assessed as reduction in bacterial growth incubated for 18 to 24 hrs by broth microdilution method; assay type: functional; conditions: time 18-24 hrs
# [4] = Stability in mouse serum assessed as retention time measured after 1 hr by RP-HPLC analysis; assay type: ADME, cell-free
# Staphylococcus aureus [5] = assay: Additive antibacterial activity against methicillin-resistant Staphylococcus aureus assessed as fractional inhibitory in presence of cephalothin by checker board assay; assay type: functional
# Bacillus subtilis = assay: Antibacterial activity against Bacillus subtilis ATCC 23857 assessed as reduction in bacterial growth incubated for 18 to 24 hrs by broth microdilution method; assay type: functional; conditions: time 18-24 hrs
# Staphylococcus aureus [6] = assay: Additive antibacterial activity against Staphylococcus aureus 113 assessed as fractional inhibitory in presence of cephalothin by checker board assay; assay type: functional
# Klebsiella pneumoniae [7] = assay: Antibacterial activity against Klebsiella pneumoniae ATCC 700603 infected in male BALB/c mouse lung infection model assessed as expansion of lung alveoli at 5 mg/kg, ip measured after 6 to 36 hrs; assay type: functional, organism-based; conditions: time 6-36 hrs
# Staphylococcus aureus [8] = assay: Synergistic antibacterial activity against methicillin-resistant Staphylococcus aureus measured after 18 hrs in presence of polymyxin B by absorbance based analysis; assay type: functional, organism-based
# Staphylococcus aureus [9] = assay: Bactericidal activity against Staphylococcus aureus 25923 assessed as eradication of bacteria at 2 times MIC measured within 1 hr by time-kill assay; assay type: functional, organism-based
# Staphylococcus aureus [10] = assay: Antibacterial activity against Staphylococcus aureus 113 assessed as reduction in bacterial growth incubated for 18 to 24 hrs by broth microdilution method; assay type: functional; conditions: time 18-24 hrs
# Klebsiella pneumoniae [11] = assay: Induction of morphological changes in Klebsiella pneumoniae assessed as cell contraction at 2 times MIC measured after 120 mins by SEM analysis; assay type: functional, organism-based
# Acinetobacter baumannii [12] = assay: Antibacterial activity against Acinetobacter baumannii 92359 assessed as reduction in bacterial growth incubated for 18 to 24 hrs by broth microdilution method; assay type: functional; conditions: time 18-24 hrs
# Staphylococcus aureus [13] = assay: Synergistic antibacterial activity against methicillin-resistant Staphylococcus aureus assessed as fractional inhibitory in presence of polymyxin B by checker board assay; assay type: functional
# Staphylococcus aureus [14] = assay: Synergistic antibacterial activity against Staphylococcus aureus 25923 measured after 18 hrs in presence of streptomycin by absorbance based analysis; assay type: functional, organism-based
# Staphylococcus aureus [15] = assay: Antibacterial activity against methicillin-resistant Staphylococcus aureus ATCC 33591 assessed as reduction in bacterial growth incubated for 18 to 24 hrs by broth microdilution method; assay type: functional; conditions: time 18-24 hrs
# Staphylococcus aureus [16] = assay: Additive antibacterial activity against Staphylococcus aureus 113 assessed as fractional inhibitory in presence of streptomycin by checker board assay; assay type: functional
# Staphylococcus aureus [17] = assay: Antibacterial activity against methicillin resistant Staphylococcus aureus infected in male BALB/c mouse model of skin wound infection assessed as healthy development of sebaceous glands at 2 mg/kg, ip measured after 10 days post infection; assay type: functional, organism-based; conditions: time 10.0 day
# Staphylococcus aureus [18] = assay: Synergistic antibacterial activity against Staphylococcus aureus 113 measured after 18 hrs in presence of streptomycin by absorbance based analysis; assay type: functional, organism-based
# Escherichia coli = assay: Antibacterial activity against Escherichia coli assessed as reduction in survival bacterial growth by measuring fold change in presence of ZnCl2 measured after 18 to 24 hrs; assay type: functional; conditions: time 18-24 hrs
# Staphylococcus aureus [19] = assay: Antibacterial activity against methicillin resistant Staphylococcus aureus infected in male BALB/c mouse model of skin wound infection assessed as reduction in wound area at 2 mg/kg, ip measured after 10 days post infection relative to control; assay type: functional; design: scale not given: the % may be the effect or the level left; conditions: time 10 day
# Pseudomonas aeruginosa [20] = assay: Antibacterial activity against Pseudomonas aeruginosa ATCC 27853 assessed as reduction in bacterial growth incubated for 18 to 24 hrs by broth microdilution method; assay type: functional; conditions: time 18-24 hrs
# Staphylococcus aureus [21] = assay: Induction of cell membrane disruption in Staphylococcus aureus assessed as PI uptake at 2 to 4 times MIC measured after 120 mins by PI staining based flow cytometry analysis (Rvb =<10 %); assay type: functional; conditions: 2 h
# Staphylococcus aureus [22] = assay: Antibacterial activity against methicillin resistant Staphylococcus aureus infected in male BALB/c mouse model of skin wound infection assessed as healthy development of hair follicles at 2 mg/kg, ip measured after 10 days post infection; assay type: functional, organism-based; conditions: time 10.0 day
# Acinetobacter baumannii [23] = assay: Antibacterial activity against Acinetobacter baumannii ATCC 19606 assessed as reduction in bacterial growth incubated for 18 to 24 hrs by broth microdilution method; assay type: functional; conditions: time 18-24 hrs
# Acinetobacter baumannii [24] = assay: Antibacterial activity against Acinetobacter baumannii 5444 assessed as reduction in bacterial growth incubated for 18 to 24 hrs by broth microdilution method; assay type: functional; conditions: time 18-24 hrs
# Klebsiella pneumoniae [25] = assay: Induction of morphological changes in Klebsiella pneumoniae assessed as cell aggregation at 2 times MIC measured after 30 mins by SEM analysis; assay type: functional, organism-based
# Staphylococcus aureus [26] = assay: Antibacterial activity against Staphylococcus aureus 794 assessed as reduction in bacterial growth incubated for 18 to 24 hrs by broth microdilution method; assay type: functional; conditions: time 18-24 hrs
# Klebsiella pneumoniae [27] = assay: Induction of morphological changes in Klebsiella pneumoniae assessed as cell adhesion at 2 times MIC measured after 120 mins by SEM analysis; assay type: functional, organism-based
# Klebsiella pneumoniae [28] = assay: Induction of morphological changes in Klebsiella pneumoniae assessed as cell aggregation at 2 times MIC measured after 120 mins by SEM analysis; assay type: functional, organism-based
# Staphylococcus aureus [29] = assay: Synergistic antibacterial activity against Staphylococcus aureus 113 measured after 18 hrs in presence of cephalothin by absorbance based analysis; assay type: functional, organism-based
# Staphylococcus aureus [30] = assay: Antibacterial activity against Staphylococcus aureus assessed as reduction in survival bacterial growth in presence of <=2 ug/ml chymotrypsin measured after1 hr by absorbance based analysis; assay type: functional, organism-based; conditions: time 1.0 hrs
# Staphylococcus aureus [31] = assay: Antibacterial activity against Staphylococcus aureus 25923 at sub-MIC concentration measured after 15 passages; assay type: functional, organism-based
# [32] = Acute toxicity in male BALB/c mouse assessed lethal dose administered as ip dose measured for 7 days; assay type: organism-based; conditions: in vivo, time 7 day
# Pseudomonas aeruginosa [33] = assay: Antibacterial activity against Pseudomonas aeruginosa 124 assessed as reduction in bacterial growth incubated for 18 to 24 hrs by broth microdilution method; assay type: functional; conditions: time 18-24 hrs
# Staphylococcus aureus [34] = assay: Synergistic antibacterial activity against Staphylococcus aureus 25923 assessed as fractional inhibitory in presence of polymyxin B by checker board assay; assay type: functional
# Staphylococcus aureus [35] = assay: Synergistic antibacterial activity against methicillin-resistant Staphylococcus aureus measured after 18 hrs in presence of cephalothin by absorbance based analysis; assay type: functional, organism-based
# Staphylococcus aureus [36] = assay: Induction of morphological changes in Staphylococcus aureus assessed as cell aggregation adhesion at 2 times MIC measured after 120 mins by SEM analysis; assay type: functional, organism-based
compound,measurement,setting,value
CCCCCCCCCCCC(=O)N[C@@H](CCCCN)C(=O)N[C@@H](CCCCN)C(=O)N[C@@H](Cc1c[nH]c2ccccc12)C(=O)N[C@@H](Cc1c[nH]c2ccccc12)C(N)=O (Lauroyl-KKWW-NH2),Activity,Lipopolysaccharide (LPS),Active
same,Activity,Staphylococcus aureus [1],Active
same,Activity,Staphylococcus aureus [2],Active
same,Activity,Cell membrane,Active; Compound Showed Stronger Effect Than Positive Control 0.1% Tritonx-100
same,Activity,Staphylococcus aureus [3],Active
same,MIC,Enterococcus faecalis,8 µM
same,Retention_time,[4],19.718 min
same,fractional inhibitory concentration index (FICI),Staphylococcus aureus [5],0.75
same,MIC,Bacillus subtilis,2 µM
same,fractional inhibitory concentration index (FICI),Staphylococcus aureus [6],0.562
same,Activity,Klebsiella pneumoniae [7],Active
same,Activity,Staphylococcus aureus [8],Active
same,Activity,Staphylococcus aureus [9],Active
same,MIC,Staphylococcus aureus [10],4 µM
same,Activity,Klebsiella pneumoniae [11],Active; Compound Showed More Pronounced Effect Compared To 30 Mins Incubation Time
same,MIC,Acinetobacter baumannii [12],16 µM
same,fractional inhibitory concentration index (FICI),Staphylococcus aureus [13],0.375
same,Activity,Staphylococcus aureus [14],Active
same,MIC,Staphylococcus aureus [15],4 µM
same,fractional inhibitory concentration index (FICI),Staphylococcus aureus [16],0.562
same,Activity,Staphylococcus aureus [17],Active
same,Activity,Staphylococcus aureus [18],Active
same,fold change (FC),Escherichia coli,2
same,Activity,Staphylococcus aureus [19],<20%
same,MIC,Pseudomonas aeruginosa [20],8 µM
same,Activity,Staphylococcus aureus [21],100%
same,Activity,Staphylococcus aureus [22],Active
same,MIC,Acinetobacter baumannii [23],16 µM
same,MIC,Acinetobacter baumannii [24],16 µM
same,Activity,Klebsiella pneumoniae [25],Active
same,MIC,Staphylococcus aureus [26],4 µM
same,Activity,Klebsiella pneumoniae [27],Active; Compound Showed More Pronounced Effect Compared To 30 Mins Incubation Time
same,Activity,Klebsiella pneumoniae [28],Active; Compound Showed More Pronounced Effect Compared To 30 Mins Incubation Time
same,Activity,Staphylococcus aureus [29],Active
same,Activity,Staphylococcus aureus [30],Active
same,Activity,Staphylococcus aureus [31],inactive
same,LD50 at 168 h,[32],114 mg/kg
same,MIC,Pseudomonas aeruginosa [33],8 µM
same,fractional inhibitory concentration index (FICI),Staphylococcus aureus [34],0.5
same,Activity,Staphylococcus aureus [35],Active
same,Activity,Staphylococcus aureus [36],Active
CCCCCCCC(=O)NCCCC[C@H](NC(=O)CCCCCCC)C(=O)N[C@@H](CCCCN)C(=O)N[C@@H](CCCCN)C(=O)N[C@@H](Cc1c[nH]c2ccccc12)C(=O)N[C@@H](Cc1c[nH]c2ccccc12)C(N)=O (Octanoyl-K(Octanoyl)KKWW-NH2),Activity,Lipopolysaccharide (LPS),Active
same,Activity,Staphylococcus aureus [1],Active
same,Activity,Staphylococcus aureus [2],Active
same,Activity,Cell membrane,Active; Compound Showed Stronger Effect Than Positive Control 0.1% Tritonx-100
same,Activity,Staphylococcus aureus [3],Active
same,MIC,Enterococcus faecalis,16 µM
same,Retention_time,[4],19.975 min
same,fractional inhibitory concentration index (FICI),Staphylococcus aureus [5],0.562
same,MIC,Bacillus subtilis,8 µM
same,fractional inhibitory concentration index (FICI),Staphylococcus aureus [6],0.562
same,Activity,Klebsiella pneumoniae [7],Active
same,Activity,Staphylococcus aureus [8],Active
same,Activity,Staphylococcus aureus [9],Active
same,MIC,Staphylococcus aureus [10],8 µM
same,Activity,Klebsiella pneumoniae [11],Active; Compound Showed More Pronounced Effect Compared To 30 Mins Incubation Time
same,MIC,Acinetobacter baumannii [12],8 µM
same,fractional inhibitory concentration index (FICI),Staphylococcus aureus [13],0.375
same,Activity,Staphylococcus aureus [14],Active
same,MIC,Staphylococcus aureus [15],8 µM
same,fractional inhibitory concentration index (FICI),Staphylococcus aureus [16],0.75
same,Activity,Staphylococcus aureus [17],Active
same,Activity,Staphylococcus aureus [18],Active
same,fold change (FC),Escherichia coli,2
same,Activity,Staphylococcus aureus [19],<20%
same,MIC,Pseudomonas aeruginosa [20],16 µM
same,Activity,Staphylococcus aureus [21],100%
same,Activity,Staphylococcus aureus [22],Active
same,MIC,Acinetobacter baumannii [23],16 µM
same,MIC,Acinetobacter baumannii [24],16 µM
same,Activity,Klebsiella pneumoniae [25],Active
same,MIC,Staphylococcus aureus [26],16 µM
same,Activity,Klebsiella pneumoniae [27],Active; Compound Showed More Pronounced Effect Compared To 30 Mins Incubation Time
same,Activity,Klebsiella pneumoniae [28],Active; Compound Showed More Pronounced Effect Compared To 30 Mins Incubation Time
same,Activity,Staphylococcus aureus [29],Active
same,Activity,Staphylococcus aureus [30],Active
same,Activity,Staphylococcus aureus [31],inactive
same,LD50 at 168 h,[32],113 mg/kg
same,MIC,Pseudomonas aeruginosa [33],8 µM
same,fractional inhibitory concentration index (FICI),Staphylococcus aureus [34],0.5
same,Activity,Staphylococcus aureus [35],Active
same,Activity,Staphylococcus aureus [36],Active
